The test system of one experiment is A. baumannii isolates. In words: Susceptibility of A. baumannii isolates by broth microdilution (CLSI methodology). Type of experiment: cell-based. The conditions noted are these: for MIC: Acinetobacter baumannii. As to the method: Susceptibility of the A. baumannii isolates to each of the agents was determined by broth microdilution using Clinical and Laboratory Standards Institute (CLSI) methodology at a central laboratory. […] The susceptibility of A. baumannii to other drugs was interpreted according to the standard procedures as defiend by CLSI (Clinical and Laboratory Standards Institute Test Procedures MO2-A10, Vol. 29, No. 1; M07-A8, Vol. 29, No. 2 and/or M100-S19, Vol. 29, No. 3; Jan. 2009).

Experiment [1] concerns A. baumannii. The experiment can be described thus: Clinical and microbiological outcome at test of cure visit in subjects with nosocomial pneumonia, 3 clinical studies of doripenem. Type of experiment: in vivo, human. How it is done:
Each group received treatment of either doripenem alone or doripenem with concomitant therapy, as noted.
True concomitant therapy was determined by applying the following algorithm: treatment with the second antimicrobial was initiated during Study Days 1-14 and administered on the same study days as doripenem. In addition, the second antimicrobial was given for >1 day of the overlapping period. Concomitant therapy was assessed for the following antimicrobial agents: the fluoroquinolones ciprofloxacin and levofloxacin, colistin and the aminoglycosides amakacin and tobramycin.
Doripenem was administered at either 500 mg Q8H as a 1 hour infusion, 500 mg Q8H as a 4 hour infusion or 1g Q8H as a 4 hour infusion, depending on the specific clinical study, as noted in the Tables below.

The subject of experiment [2] is A. baumannii. As to conditions: MICs as high as 16 μg/mL; doripenem 1 gram over a 4 hour infusion; cited from earlier work.
The mark [3] stands for this setting: isolate of each patient, doripenem + amikacin group.
[4] abbreviates: A. baumannii isolate of each patient, doripenem monotherapy group, monohydrate.
[5] abbreviates: isolate of each patient, doripenem + amikacin group, monohydrate.
[6] abbreviates: isolate of each patient, doripenem + colistin group, monohydrate.
Setting [7] is: isolate of each patient, doripenem + fluoroquinolone group.
[8] abbreviates: isolate of each patient, doripenem + tobramycin group, monohydrate.
Where [9] appears, read: per patient, test of cure visit, doripenem 1 gram or 500 mg every 8 hours, listed as Doripenem Monotherapy, monohydrate.
Setting [10] is: whole treatment group, test of cure.
Where [11] appears, read: isolate of each patient, doripenem + tobramycin group.
The mark [12] stands for this setting: isolate of each patient, doripenem + colistin group.

Where “and” joins values, the source holds several entries; their conditions need not be identical. Equal entries are not always repeated. Entries after “also recorded” stand apart in the source; their conditions may differ. Structures can show the parent of a compound that is named as a salt. Where two headings read alike, the source gives them in different places.

Turning to `NCC[C@H](O)C(=O)N[C@@H]1C[C@H](N)[C@@H](O[C@H]2O[C@H](CN)[C@@H](O)[C@H](O)[C@H]2O)[C@H](O)[C@H]1O[C@H]1O[C@H](CO)[C@@H](O)[C@H](N)[C@H]1O` [Amikacin, amikacin], in the experiment with A. baumannii isolates (setting [3]), the “Amikacin MIC” value was >64 μg/mL (5×) and 4 μg/mL and 1 μg/mL (2×) and 2 μg/mL; the Amikacin susceptibility result is on record as “(NS) (Non-susceptible (NS) ≧32 μg/mL); also recorded: (S) (Amikacin: Susceptible (S) ≦16 μg/mL)”.

As to `C[C@@H](O)[C@H]1C(=O)N2C(C(=O)O)=C(S[C@@H]3CN[C@H](CNS(N)(=O)=O)C3)[C@H](C)[C@H]12` [Doripenem, doripenem monohydrate], the “Doripenem MIC” value with A. baumannii isolates (setting [4]) is 0.25 μg/mL (2×) and 0.12 μg/mL (2×) and 0.5 μg/mL (2×) and >128 μg/mL and 8 μg/mL and 1 μg/mL; with A. baumannii isolates (setting [5]), 64 μg/mL (2×) and 1 μg/mL (2×) and 0.25 μg/mL and 0.12 μg/mL and >32 μg/mL and 16 μg/mL; in the experiment with A. baumannii isolates (setting [6]), >32 µg/mL and 32 µg/mL and 1 µg/mL; in the experiment on A. baumannii isolates (isolate of each patient, doripenem + fluoroquinolone group, monohydrate) it was 32 µg/mL and 16 µg/mL and >32 µg/mL; in the experiment on A. baumannii isolates (setting [8]) it was 0.12 μg/mL (3×) and >32 μg/mL and 1 μg/mL and 0.25 μg/mL. Also, the Doripenem susceptibility entry with A. baumannii isolates (setting [4]) is given as “(S) (Susceptible (S) ≦1 μg/mL); also recorded: (NS) (Non-susceptible (NS) >2 μg/mL)”; with A. baumannii isolates (setting [5]) it was “(NS) (Non-susceptible (NS) >2 μg/mL); also recorded: (S) (Susceptible (S) ≦1 μg/mL)”; in the experiment with A. baumannii isolates (setting [6]), “(NS) (Non-susceptible (NS) >2 μg/mL); also recorded: (S) (Susceptible (S) ≦1 μg/mL)”; with A. baumannii isolates (setting [7]), “(NS) (Non-susceptible (NS) >2 μg/mL)”; with A. baumannii isolates (setting [8]), “(S) (Susceptible (S) ≦1 μg/mL); also recorded: (NS) (Non-susceptible (NS) >2 μg/mL)”. In the experiment with A. baumannii isolates (isolate of each patient, doripenem + fluoroquinolone group, read-out: Doripenem MIC), the MIC is more than 32 µg/mL. Further, the treatment effect entry in the experiment with A. baumannii [1] (nosocomial pneumonia due to doripenem-susceptible A. baumannii) is recorded as “effective”. The “Clinical Outcome” value in the experiment with A. baumannii [1] (setting [9]) was “Cure (7×) and Failure (2×)”. Further, the “Microbiological Outcome” value in the experiment with A. baumannii [1] (setting [9]) is reported as “Eradicated; also recorded: Persisted”. The positive outcome in the experiment with A. baumannii [1] (setting [10]) worked out at 77.8%. Besides, the “positive outcome (patients with positive outcome / patients in group)” value with A. baumannii [1] (setting [10]) is recorded as 7/9. The “treatment of pneumonia due to A. baumannii” value with A. baumannii [2] was “effectively treated”.

`C[C@H]1COc2c(N3CCN(C)CC3)c(F)cc3c(=O)c(C(=O)O)cn1c23` [Levofloxacin, levofloxacin]: the minimal inhibitory concentration (MIC) in the experiment with A. baumannii isolates (isolate of each patient, doripenem + fluoroquinolone group, read-out: Fluoroquinolone MIC) is more than 4 µg/mL. Also, in the experiment with A. baumannii isolates (setting [7]), the “Fluoroquinolone MIC” value is more than 4 µg/mL and the Levofloxacin susceptibility result is “(NS) (Non-susceptible (NS) ≧4 μg/mL)”.

For `NC[C@H]1O[C@H](O[C@H]2[C@H](O)[C@@H](O[C@H]3O[C@H](CO)[C@@H](O)[C@H](N)[C@H]3O)[C@H](N)C[C@@H]2N)[C@H](N)C[C@@H]1O` [Tobramycin, tobranycin sulfate], in the experiment with A. baumannii isolates (setting [11]), the “Tobramycin MIC” value was 0.5 μg/mL (2×) and 4 μg/mL and 0.25 μg/mL; the Tobramycin susceptibility result was “(S) (Tobramycin: Susceptible (S) ≦4 μg/mL)”.

Regarding colistin, in the experiment on A. baumannii isolates (setting [12]), the “Colistin MIC” value stood at 1 µg/mL and the Colistin susceptibility entry is “S (Colistin: Susceptible (S) ≦2 μg/mL)”.

Values taken from patent US20110281839A1, “COMBINATION THERAPY FOR THE TREATMENT OF BACTERIAL INFECTIONS” (priority 2010, published 2011).
